In patent US7807676B2, “Diketo-Piperazine and Piperidine derivatives as antiviral agents” (priority 2006, dated 2010):
Counter-ions that a name gives are not always drawn.

test system: HIV-1 single-round infectious reporter virus; test: Single-round infectious HIV-1 luciferase reporter virus infection of HeLa CD4 cells (antiviral EC50); type: cell-based; conditions: Human immunodeficiency virus 1, HeLa, read-out: EC50 Group from Table 3
Method: • Virus production—Human embryonic Kidney cell line, 293T, was propagated in Dulbecco's Modified Eagle Medium (Invitrogen, Carlsbad, Calif.) containing 10% fetal Bovine serum (FBS, Sigma, St. Louis, Mo.). • Virus infection—Human epithelial cell line, HeLa, expressing the HIV-1 receptor CD4 was propagated in Dulbecco's Modified Eagle Medium (Invitrogen, Carlsbad, Calif.) containing 10% fetal Bovine serum (FBS, Sigma, St. Louis, Mo.) and supplemented with 0.2 mg/mL Geneticin (Invitrogen, Carlsbad, Calif.). Virus-Single-round infectious reporter virus was produced by co-transfecting human embryonic Kidney 293 cells with an HIV-1 envelope DNA expression vector and a proviral cDNA containing an envelope deletion mutation and the luciferase reporter gene inserted in place of HIV-1 nef sequences (Chen et al, Ref. 41). Transfections were performed using lipofectAMINE PLUS reagent as described by the manufacturer (Invitrogen, Carlsbad, Calif.). Experiment • 1. HeLa CD4 cells were plated in 96 well plates at a cell density of 1×10^4 cells per well in 100 μl Dulbecco's Modified Eagle Medium containing 10% fetal Bovine serum and incubated overnight. • 2. Compound was added in a 2 μl dimethylsulfoxide solution, so that the final assay concentration would be ≦10 μM. • 3. 100 μl of single-round infectious reporter virus in Dulbecco's Modified Eagle Medium was then added to the plated cells and compound at an approximate multiplicity of infection (MOI) of 0.01, resulting in a final volume of 200 μl per well. • 4. Virally-infected cells were incubated at 37 degrees Celsius, in a CO2 incubator, and harvested 72 h after infection. • 5. Viral infection was monitored by measuring luciferase expression from viral DNA in the infected cells using a luciferase reporter gene assay kit, as described by the manufacturer (Roche Molecular Biochemicals, Indianapolis, Ind.). Infected cell supernatants were removed and 50 μl of lysis buffer was added per well. After 15 minutes, 50 μl of freshly-reconstituted luciferase assay reagent was added per well. Luciferase activity was then quantified by measuring luminescence using a Wallac microbeta scintillation counter. • 6. The percent inhibition for each compound was calculated by quantifying the level of luciferase expression in cells infected in the presence of each compound as a percentage of that observed for cells infected in the absence of compound and subtracting such a determined value from 100. • 7. An EC50 provides a method for comparing the antiviral potency of the compounds of this disclosure. The effective concentration for fifty percent inhibition (EC50) was calculated with the Microsoft Excel Xlfit curve fitting software. For each compound, curves were generated from percent inhibition calculated at 10 different concentrations by using a four parameter logistic model (model 205). Table 3 is the key for the data in Table 4. Results

Q: How did the EC50 turn out when COc1cnc(-c2cc(C(=O)NCCOCCO)[nH]n2)c2[nH]cc(C(=O)C(=O)N3CCN(c4nnnn4-c4ccccc4)CC3)c12 [B-9, N-(2-(2-hydroxyethoxy)ethyl)-3-(4-methoxy-3-(2-oxo-2-(4-(1-phenyl-1H-tetrazol-5-yl)piperazin-1-yl)acetyl)-1H-pyrrolo[2,3-c]pyridin-7-yl)-1H-pyrazole-5-carboxamide.TFA] was run?
A: The EC50 was less than 500 nM.

Q: For COc1cnc(-c2cc(C(=O)NCCCN3CCN(C)CC3)[nH]n2)c2[nH]cc(C(=O)C(=O)N3CCN(c4nnnn4-c4ccccc4)CC3)c12 [B-10, 3-(4-methoxy-3-(2-oxo-2-(4-(1-phenyl-1H-tetrazol-5-yl)piperazin-1-yl)acetyl)-1H-pyrrolo[2,3-c]pyridin-7-yl)-N-(3-(4-methylpiperazin-1-yl)propyl)-1H-pyrazole-5-carboxamide.TFA], which EC50 is on record?
A: The EC50 was less than 500 nM.

Q: COc1cnc(-c2cc(C(=O)NCCN3CCCC3)[nH]n2)c2[nH]cc(C(=O)C(=O)N3CCN(c4nnnn4-c4ccccc4)CC3)c12 [B-11, 3-(4-methoxy-3-(2-oxo-2-(4-(1-phenyl-1H-tetrazol-5-yl)piperazin-1-yl)acetyl)-1H-pyrrolo[2,3-c]pyridin-7-yl)-N-(2-(pyrrolidin-1-yl)ethyl)-1H-pyrazole-5-carboxamide.TFA] was tested. Which EC50 did it give?
A: Its EC50 is less than 500 nM.

Q: How did the EC50 turn out when COc1cnc(-c2cc(C(=O)NCCc3ccncc3)[nH]n2)c2[nH]cc(C(=O)C(=O)N3CCN(c4nnnn4-c4ccccc4)CC3)c12 [B-12, 3-(4-methoxy-3-(2-oxo-2-(4-(1-phenyl-1H-tetrazol-5-yl)piperazin-1-yl)acetyl)-1H-pyrrolo[2,3-c]pyridin-7-yl)-N-(2-(pyridin-4-yl)ethyl)-1H-pyrazole-5-carboxamide.TFA] was run?
A: The EC50 was less than 500 nM.

Q: With COc1cnc(-c2cc(C(=O)NCCN3CCOCC3)[nH]n2)c2[nH]cc(C(=O)C(=O)N3CCN(c4nnnn4-c4ccccc4)CC3)c12 [B-13, 3-(4-methoxy-3-(2-oxo-2-(4-(1-phenyl-1H-tetrazol-5-yl)piperazin-1-yl)acetyl)-1H-pyrrolo[2,3-c]pyridin-7-yl)-N-(2-morpholinoethyl)-1H-pyrazole-5-carboxamide.TFA] as the compound, how does the EC50 read?
A: The EC50 was less than 500 nM.

Q: COc1cnc(-c2cc(C(=O)NCCN3CCNCC3)[nH]n2)c2[nH]cc(C(=O)C(=O)N3CCN(c4nnnn4-c4ccccc4)CC3)c12 [B-14, 3-(4-methoxy-3-(2-oxo-2-(4-(1-phenyl-1H-tetrazol-5-yl)piperazin-1-yl)acetyl)-1H-pyrrolo[2,3-c]pyridin-7-yl)-N-(2-(piperazin-1-yl)ethyl)-1H-pyrazole-5-carboxamide.TFA] was tested. Which EC50 did it give?
A: The EC50 was less than 500 nM.

Q: Which EC50 does the source give for COc1cnc(-c2cc(C(=O)NCCCN(C)C)[nH]n2)c2[nH]cc(C(=O)C(=O)N3CCN(c4nnnn4-c4ccccc4)CC3)c12 [B-15, N-(3-(dimethylamino)propyl)-3-(4-methoxy-3-(2-oxo-2-(4-(1-phenyl-1H-tetrazol-5-yl)piperazin-1-yl)acetyl)-1H-pyrrolo[2,3-c]pyridin-7-yl)-1H-pyrazole-5-carboxamide.TFA] here?
A: The EC50 was less than 500 nM.

Q: With COc1cnc(-c2cc(C(=O)NCCN(C)C)[nH]n2)c2[nH]cc(C(=O)C(=O)N3CCN(c4nnnn4-c4ccccc4)CC3)c12 [B-16, N-(2-(dimethylamino)ethyl)-3-(4-methoxy-3-(2-oxo-2-(4-(1-phenyl-1H-tetrazol-5-yl)piperazin-1-yl)acetyl)-1H-pyrrolo[2,3-c]pyridin-7-yl)-1H-pyrazole-5-carboxamide.TFA] as the compound, how does the EC50 read?
A: The EC50 was less than 500 nM.

Q: How did the EC50 turn out when Nc1ncc(F)c2c(C(=O)C(=O)N3CCN(c4nnnn4-c4ccccc4)CC3)c[nH]c12 [B-17, 1-(7-amino-4-fluoro-1H-pyrrolo[2,3-c]pyridin-3-yl)-2-(4-(1-phenyl-1H-tetrazol-5-yl)piperazin-1-yl)ethane-1,2-dione] was run?
A: The EC50 was less than 500 nM.

Q: Which EC50 does the source give for CC(=O)Nc1ncc(F)c2c(C(=O)C(=O)N3CCN(c4nnnn4-c4ccccc4)CC3)c[nH]c12 [B-18, N-(4-fluoro-3-(2-oxo-2-(4-(1-phenyl-1H-tetrazol-5-yl)piperazin-1-yl)acetyl)-1H-pyrrolo[2,3-c]pyridin-7-yl)acetamide] here?
A: Its EC50 is greater than 500 nM.

Q: CN(C)C(=O)Nc1ncc(F)c2c(C(=O)C(=O)N3CCN(c4nnnn4-c4ccccc4)CC3)c[nH]c12 [B-19, 3-(4-fluoro-3-(2-oxo-2-(4-(1-phenyl-1H-tetrazol-5-yl)piperazin-1-yl)acetyl)-1H-pyrrolo[2,3-c]pyridin-7-yl)-1,1-dimethylurea] was tested. Which EC50 did it give?
A: Its EC50 is less than 500 nM.

Q: Which EC50 does the source give for CN(C)C(=O)C(=O)Nc1ncc(F)c2c(C(=O)C(=O)N3CCN(c4nnnn4-c4ccccc4)CC3)c[nH]c12 [B-20, N^1-(4-fluoro-3-(2-oxo-2-(4-(1-phenyl-1H-tetrazol-5-yl)piperazin-1-yl)acetyl)-1H-pyrrolo[2,3-c]pyridin-7-yl)-N^2,N^2-dimethyloxalamide] here?
A: Its EC50 is less than 500 nM.

Q: Which EC50 does the source give for COc1cnc(-c2cc(C(=O)O)[nH]n2)c2[nH]cc(C(=O)C(=O)N3CCN(c4nnnn4-c4ccccc4)CC3)c12 [B-21, 3-(4-methoxy-3-(2-oxo-2-(4-(1-phenyl-1H-tetrazol-5-yl)piperazin-1-yl)acetyl)-1H-pyrrolo[2,3-c]pyridin-7-yl)-1H-pyrazole-5-carboxylic acid] here?
A: Its EC50 is less than 500 nM.

Q: COc1cnc(-c2cc(CO)[nH]n2)c2[nH]cc(C(=O)C(=O)N3CCN(c4nnnn4-c4ccccc4)CC3)c12 [B-22, 1-(7-(5-(hydroxymethyl)-1H-pyrazol-3-yl)-4-methoxy-1H-pyrrolo[2,3-c]pyridin-3-yl)-2-(4-(1-phenyl-1H-tetrazol-5-yl)piperazin-1-yl)ethane-1,2-dione] was tested. Which EC50 did it give?
A: The EC50 was less than 500 nM.

Q: CN(C)CCNc1ccn(-c2ncc(F)c3c(C(=O)C(=O)N4CCN(c5nnnn5-c5ccccc5)CC4)c[nH]c23)n1 [B-23, 1-(7-(3-(2-(dimethylamino)ethylamino)-1H-pyrazol-1-yl)-4-fluoro-1H-pyrrolo[2,3-c]pyridin-3-yl)-2-(4-(1-phenyl-1H-tetrazol-5-yl)piperazin-1-yl)ethane-1,2-dione TFA] was tested. Which EC50 did it give?
A: The EC50 was less than 500 nM.

Q: Which EC50 does the source give for COc1cnc(-c2cc(CNCCO)[nH]n2)c2[nH]cc(C(=O)C(=O)N3CCN(c4nnnn4-c4ccccc4)CC3)c12 [B-24, 1-(7-(5-((2-hydroxyethylamino)methyl)-1H-pyrazol-3-yl)-4-methoxy-1H-pyrrolo[2,3-c]pyridin-3-yl)-2-(4-(1-phenyl-1H-tetrazol-5-yl)piperazin-1-yl)ethane-1,2-dione TFA] here?
A: The EC50 was less than 500 nM.

Q: With COc1cnc(-c2cc(CNCCN(C)C)[nH]n2)c2[nH]cc(C(=O)C(=O)N3CCN(c4nnnn4-c4ccccc4)CC3)c12 [B-25, 1-(7-(5-((2-(dimethylamino)ethylamino)methyl)-1H-pyrazol-3-yl)-4-methoxy-1H-pyrrolo[2,3-c]pyridin-3-yl)-2-(4-(1-phenyl-1H-tetrazol-5-yl)piperazin-1-yl)ethane-1,2-dione TFA] as the compound, how does the EC50 read?
A: The EC50 was less than 500 nM.

Q: COc1cnc(-c2cc(CN(C)CCN(C)C)[nH]n2)c2[nH]cc(C(=O)C(=O)N3CCN(c4nnnn4-c4ccccc4)CC3)c12 [B-26, 1-(7-(5-(((2-(dimethylamino)ethyl)(methyl)amino)methyl)-1H-pyrazol-3-yl)-4-methoxy-1H-pyrrolo[2,3-c]pyridin-3-yl)-2-(4-(1-phenyl-1H-tetrazol-5-yl)piperazin-1-yl)ethane-1,2-dione TFA] was tested. Which EC50 did it give?
A: Its EC50 is less than 500 nM.

Q: How did the EC50 turn out when COc1cnc(-c2cc(CNCCc3ccncc3)[nH]n2)c2[nH]cc(C(=O)C(=O)N3CCN(c4nnnn4-c4ccccc4)CC3)c12 [B-27, 1-(4-methoxy-7-(5-((2-(pyridin-4-yl)ethylamino)methyl)-1H-pyrazol-3-yl)-1H-pyrrolo[2,3-c]pyridin-3-yl)-2-(4-(1-phenyl-1H-tetrazol-5-yl)piperazin-1-yl)ethane-1,2-dione TFA] was run?
A: The EC50 was less than 500 nM.
